Columns and labels:
[1] = test system: false pimpernel; assay: Test Example 1: herbicidal efficacy on rice paddy weeds pre-emergence; format: in vivo, Lindernia pyxidaria; details: 21 days
[2] = test system: bulrush; assay: Test Example 2: herbicidal efficacy on rice paddy weeds post-emergence; format: in vivo, Scirpus juncoides; details: post-emergence, one leaf stage, 21 days after treatment
[3] = test system: paddy rice plant (cultivar: Nihonbare); assay: Test Example 3: phytotoxicity test for transplanted paddy rice plant; format: in vivo; details: transplanted rice, 21 days after treatment
Method in brief: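 Clay loam soil was placed in a 75 cm^2 plastic pot and flooded to a water depth of 5 cm. Two Nihonbare paddy rice plants at the two-leaf stage were transplanted 1 cm deep and grown in a hot house. After treatment, pots stayed in the hot house for 21 days, and phytotoxicity was then graded against an untreated control.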

[4] = test system: transplanted paddy rice plant and Bulrush; assay: Test Example 5: selectivity between transplanted paddy rice plant and weeds; format: in vivo; details: (highest dosage with no phytotoxicity to paddy rice)/(lowest dosage with effective level 4 on Bulrush); rice 3000-100 g/ha, Bulrush 300-10 g/ha; 21 days
Protocol: (§1) The standard of judgment for herbicidal efficacy (degree of growth inhibition) and phytotoxicity 4 . . . 90%-100% of herbicidal efficacy or phytotoxicity 3 . . . 70%-89% of herbicidal efficacy or phytotoxicity 2 . . . 40%-69% of herbicidal efficacy or phytotoxicity 1 . . . 1%-39% of herbicidal efficacy or phytotoxicity 0 . . . 0% of herbicidal efficacy or phytotoxicity
Phytotoxicity test for transplanted paddy rice plants was carried out, as in Test Example 3, by the treatment of 3000, 1000, 300 and 100 (g/ha of the active ingredient) dosage, and herbicidal test to weed post-emergence was carried out to Burlush seeded as in Test Example 2 treating at 300, 100, 30 and 10 (g/ha) dosage. The pots were kept in a hot house for 21 days after the treatment, and the phytotoxicity and the herbicidal efficacy was investigated and evaluated according to the standard in Test Example 1 by comparing with the untreated control. […] Further, as a comparative compound, the compound No. 6-28 described in the JP-A-2004-107322 was used.

[5] = test system: false pimpernel; assay: Test Example 2: herbicidal efficacy on rice paddy weeds post-emergence; format: in vivo, Lindernia pyxidaria; details: post-emergence, one leaf stage, 21 days after treatment
[6] = test system: bulrush; assay: Test Example 4: low dosage test for rice paddy weeds; format: in vivo, Scirpus juncoides; details: 300 g/ha as an active ingredient; plants treated at the one leaf stage; 21 days after treatment; vs untreated control
Source text: as §1
A 75 cm^2 plastic pot was filled with soil (clay loam) and planted seeds of bulrush which is a rice paddy weed. After covering the top with 75 cm^3 soil, the pot was filled with water so that the soil submerged under 5 cm depth of water and kept in a hot house. The test plants, at the one leaf stage, were treated with the solution of a formulation containing the compound of the present invention as an active ingredient at the predetermined effective dosage (300 g/ha as an active ingredient). The pots were kept in a hot house for 21 days after the treatment and the herbicidal efficacy was investigated and evaluated according to the standard in Test Example 1 by comparing with the untreated control. Further, as a comparative compound, the compound No. 6-28 described in the JP-A-2004-107322 was used.

[7] = test system: barnyard glass; assay: Test Example 2: herbicidal efficacy on rice paddy weeds post-emergence; format: in vivo, Echinochloa crus-galli; details: post-emergence, one leaf stage, 21 days after treatment
Method in brief: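 Efficacy on paddy weeds was scored on a 0 to 4 growth-inhibition scale: 4 for 90%-100%, 3 for 70%-89%, 2 for 40%-69%, 1 for 1%-39% and 0 for 0%. Barnyard glass was grown in clay loam in 75 cm^2 pots under 5 cm of water in a hot house. It was compared with untreated pots 21 days after treatment.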

[8] = test system: bulrush; assay: Test Example 1: herbicidal efficacy on rice paddy weeds pre-emergence; format: in vivo, Scirpus juncoides; details: 21 days
[9] = dosage 1000 g/ha, treated 5 days after transplantation

CCCCOC(=O)N(c1ccccc1CN1CC(C)(C(C)C)OC1=O)S(=O)(=O)C(F)(F)F (racemic) [1-117]
False pimpernel pre (herbicidal efficacy grade) ([1]; dosage 1000 g/ha): 4 (90%-100% of herbicidal efficacy or phytotoxicity)
Bulrush post (herbicidal efficacy grade) ([2]; dosage 1000 g/ha): 4 (90%-100% of herbicidal efficacy or phytotoxicity)
Phytotoxicity to paddy rice [3, 9]: 2 (40%-69% of herbicidal efficacy or phytotoxicity)
Selective Index [4]: 10
False pimpernel post (herbicidal efficacy grade) ([5]; dosage 1000 g/ha): 4 (90%-100% of herbicidal efficacy or phytotoxicity)
Herbicide effect to Bulrush [6]: 4 (90%-100% of herbicidal efficacy or phytotoxicity)
Burnyard grass post (herbicidal efficacy grade) ([7]; dosage 1000 g/ha): 4 (90%-100% of herbicidal efficacy or phytotoxicity)
Bulrush pre (herbicidal efficacy grade) ([8]; dosage 1000 g/ha): 4 (90%-100% of herbicidal efficacy or phytotoxicity)

CC(C)OC(=O)N(c1ccccc1CN1CC(C)(C2CC2)OC1=O)S(=O)(=O)C(F)(F)F (racemic) [1-118]
False pimpernel pre (herbicidal efficacy grade) ([1]; dosage 1000 g/ha): 4 (90%-100% of herbicidal efficacy or phytotoxicity)
Bulrush post (herbicidal efficacy grade) ([2]; dosage 1000 g/ha): 4 (90%-100% of herbicidal efficacy or phytotoxicity)
Phytotoxicity to paddy rice [3, 9]: 1 (1%-39% of herbicidal efficacy or phytotoxicity)
Selective Index [4]: 30
False pimpernel post (herbicidal efficacy grade) ([5]; dosage 1000 g/ha): 4 (90%-100% of herbicidal efficacy or phytotoxicity)
Herbicide effect to Bulrush [6]: 4 (90%-100% of herbicidal efficacy or phytotoxicity)
Burnyard grass post (herbicidal efficacy grade) ([7]; dosage 1000 g/ha): 4 (90%-100% of herbicidal efficacy or phytotoxicity)
Bulrush pre (herbicidal efficacy grade) ([8]; dosage 1000 g/ha): 4 (90%-100% of herbicidal efficacy or phytotoxicity)

COCCOC(=O)N(c1ccccc1CN1CC(C)(C2CC2)OC1=O)S(=O)(=O)C(F)(F)F (racemic) [1-119]
False pimpernel pre (herbicidal efficacy grade) ([1]; dosage 1000 g/ha): 4 (90%-100% of herbicidal efficacy or phytotoxicity)
Bulrush post (herbicidal efficacy grade) ([2]; dosage 1000 g/ha): 4 (90%-100% of herbicidal efficacy or phytotoxicity)
Phytotoxicity to paddy rice [3, 9]: 1 (1%-39% of herbicidal efficacy or phytotoxicity)
Selective Index [4]: 30
False pimpernel post (herbicidal efficacy grade) ([5]; dosage 1000 g/ha): 4 (90%-100% of herbicidal efficacy or phytotoxicity)
Herbicide effect to Bulrush [6]: 4 (90%-100% of herbicidal efficacy or phytotoxicity)
Burnyard grass post (herbicidal efficacy grade) ([7]; dosage 1000 g/ha): 4 (90%-100% of herbicidal efficacy or phytotoxicity)
Bulrush pre (herbicidal efficacy grade) ([8]; dosage 1000 g/ha): 4 (90%-100% of herbicidal efficacy or phytotoxicity)

CCCC1(C)CN(Cc2ccccc2NS(=O)(=O)C(F)(F)F)C(=O)O1 (racemic) [1-120]
False pimpernel pre (herbicidal efficacy grade) ([1]; dosage 300 g/ha): 4 (90%-100% of herbicidal efficacy or phytotoxicity)
Bulrush post (herbicidal efficacy grade) ([2]; dosage 300 g/ha): 4 (90%-100% of herbicidal efficacy or phytotoxicity)
Phytotoxicity to paddy rice ([3]; dosage 300 g/ha): 2 (40%-69% of herbicidal efficacy or phytotoxicity)
Selective Index [4]: 10
False pimpernel post (herbicidal efficacy grade) ([5]; dosage 300 g/ha): 4 (90%-100% of herbicidal efficacy or phytotoxicity)
Herbicide effect to Bulrush [6]: 4 (90%-100% of herbicidal efficacy or phytotoxicity)
Burnyard grass post (herbicidal efficacy grade) ([7]; dosage 300 g/ha): 3 (70%-89% of herbicidal efficacy or phytotoxicity)
Bulrush pre (herbicidal efficacy grade) ([8]; dosage 300 g/ha): 4 (90%-100% of herbicidal efficacy or phytotoxicity)

CCCC1(C)CN(Cc2ccccc2N(C(=O)OCC(C)C)S(=O)(=O)C(F)(F)F)C(=O)O1 (racemic) [1-122]
False pimpernel pre (herbicidal efficacy grade) ([1]; dosage 1000 g/ha): 4 (90%-100% of herbicidal efficacy or phytotoxicity)
Bulrush post (herbicidal efficacy grade) ([2]; dosage 1000 g/ha): 4 (90%-100% of herbicidal efficacy or phytotoxicity)
Phytotoxicity to paddy rice [3, 9]: 1 (1%-39% of herbicidal efficacy or phytotoxicity)
Selective Index [4]: 10
False pimpernel post (herbicidal efficacy grade) ([5]; dosage 1000 g/ha): 4 (90%-100% of herbicidal efficacy or phytotoxicity)
Herbicide effect to Bulrush [6]: 4 (90%-100% of herbicidal efficacy or phytotoxicity)
Burnyard grass post (herbicidal efficacy grade) ([7]; dosage 1000 g/ha): 4 (90%-100% of herbicidal efficacy or phytotoxicity)
Bulrush pre (herbicidal efficacy grade) ([8]; dosage 1000 g/ha): 4 (90%-100% of herbicidal efficacy or phytotoxicity)

COC(=O)N(c1ccccc1CN1CC(C)(CC(C)C)OC1=O)S(=O)(=O)C(F)(F)F (racemic) [1-124]
False pimpernel pre (herbicidal efficacy grade) ([1]; dosage 1000 g/ha): 4 (90%-100% of herbicidal efficacy or phytotoxicity)
Bulrush post (herbicidal efficacy grade) ([2]; dosage 1000 g/ha): 4 (90%-100% of herbicidal efficacy or phytotoxicity)
Phytotoxicity to paddy rice [3, 9]: 1 (1%-39% of herbicidal efficacy or phytotoxicity)
Selective Index [4]: 10
False pimpernel post (herbicidal efficacy grade) ([5]; dosage 1000 g/ha): 4 (90%-100% of herbicidal efficacy or phytotoxicity)
Herbicide effect to Bulrush [6]: 4 (90%-100% of herbicidal efficacy or phytotoxicity)
Burnyard grass post (herbicidal efficacy grade) ([7]; dosage 1000 g/ha): 4 (90%-100% of herbicidal efficacy or phytotoxicity)
Bulrush pre (herbicidal efficacy grade) ([8]; dosage 1000 g/ha): 4 (90%-100% of herbicidal efficacy or phytotoxicity)

CCOC(=O)N(c1ccccc1CN1CC(C)(CC(C)C)OC1=O)S(=O)(=O)C(F)(F)F (racemic) [1-125]
False pimpernel pre (herbicidal efficacy grade) ([1]; dosage 1000 g/ha): 4 (90%-100% of herbicidal efficacy or phytotoxicity)
Bulrush post (herbicidal efficacy grade) ([2]; dosage 1000 g/ha): 4 (90%-100% of herbicidal efficacy or phytotoxicity)
Phytotoxicity to paddy rice [3, 9]: 1 (1%-39% of herbicidal efficacy or phytotoxicity)
Selective Index [4]: 10
False pimpernel post (herbicidal efficacy grade) ([5]; dosage 1000 g/ha): 4 (90%-100% of herbicidal efficacy or phytotoxicity)
Herbicide effect to Bulrush [6]: 4 (90%-100% of herbicidal efficacy or phytotoxicity)
Burnyard grass post (herbicidal efficacy grade) ([7]; dosage 1000 g/ha): 4 (90%-100% of herbicidal efficacy or phytotoxicity)
Bulrush pre (herbicidal efficacy grade) ([8]; dosage 1000 g/ha): 4 (90%-100% of herbicidal efficacy or phytotoxicity)

CCCC1(C)CN(Cc2ccccc2N(C(=O)OC)S(=O)(=O)C(F)(F)F)C(=O)O1 (racemic) [1-126]
False pimpernel pre (herbicidal efficacy grade) ([1]; dosage 1000 g/ha): 4 (90%-100% of herbicidal efficacy or phytotoxicity)
Bulrush post (herbicidal efficacy grade) ([2]; dosage 1000 g/ha): 4 (90%-100% of herbicidal efficacy or phytotoxicity)
Phytotoxicity to paddy rice [3, 9]: 2 (40%-69% of herbicidal efficacy or phytotoxicity)
Selective Index [4]: 10
False pimpernel post (herbicidal efficacy grade) ([5]; dosage 1000 g/ha): 4 (90%-100% of herbicidal efficacy or phytotoxicity)
Herbicide effect to Bulrush [6]: 4 (90%-100% of herbicidal efficacy or phytotoxicity)
Burnyard grass post (herbicidal efficacy grade) ([7]; dosage 1000 g/ha): 4 (90%-100% of herbicidal efficacy or phytotoxicity)
Bulrush pre (herbicidal efficacy grade) ([8]; dosage 1000 g/ha): 4 (90%-100% of herbicidal efficacy or phytotoxicity)

CCCC1(C)CN(Cc2ccccc2N(C(=O)OCC)S(=O)(=O)C(F)(F)F)C(=O)O1 (racemic) [1-127]
False pimpernel pre (herbicidal efficacy grade) ([1]; dosage 1000 g/ha): 4 (90%-100% of herbicidal efficacy or phytotoxicity)
Bulrush post (herbicidal efficacy grade) ([2]; dosage 1000 g/ha): 4 (90%-100% of herbicidal efficacy or phytotoxicity)
Phytotoxicity to paddy rice [3, 9]: 1 (1%-39% of herbicidal efficacy or phytotoxicity)
Selective Index [4]: 30
False pimpernel post (herbicidal efficacy grade) ([5]; dosage 1000 g/ha): 4 (90%-100% of herbicidal efficacy or phytotoxicity)
Herbicide effect to Bulrush [6]: 4 (90%-100% of herbicidal efficacy or phytotoxicity)
Burnyard grass post (herbicidal efficacy grade) ([7]; dosage 1000 g/ha): 4 (90%-100% of herbicidal efficacy or phytotoxicity)
Bulrush pre (herbicidal efficacy grade) ([8]; dosage 1000 g/ha): 4 (90%-100% of herbicidal efficacy or phytotoxicity)

CC1COC(=O)N1Cc1ccccc1NS(=O)(=O)C(F)(F)F (stereo not shown) [1-3]
False pimpernel pre (herbicidal efficacy grade) ([1]; dosage 1000 g/ha): 4 (90%-100% of herbicidal efficacy or phytotoxicity)
Bulrush post (herbicidal efficacy grade) ([2]; dosage 1000 g/ha): 4 (90%-100% of herbicidal efficacy or phytotoxicity)
Phytotoxicity to paddy rice [3, 9]: 4 (90%-100% of herbicidal efficacy or phytotoxicity)
Selective Index [4]: 3.3
False pimpernel post (herbicidal efficacy grade) ([5]; dosage 1000 g/ha): 4 (90%-100% of herbicidal efficacy or phytotoxicity)
Herbicide effect to Bulrush [6]: 4 (90%-100% of herbicidal efficacy or phytotoxicity)
Burnyard grass post (herbicidal efficacy grade) ([7]; dosage 1000 g/ha): 4 (90%-100% of herbicidal efficacy or phytotoxicity)
Bulrush pre (herbicidal efficacy grade) ([8]; dosage 1000 g/ha): 4 (90%-100% of herbicidal efficacy or phytotoxicity)

CC(C)COC(=O)N(c1ccccc1CN1C(=O)OCC1C)S(=O)(=O)C(F)(F)F (stereo not shown) [1-4]
False pimpernel pre (herbicidal efficacy grade) ([1]; dosage 1000 g/ha): 4 (90%-100% of herbicidal efficacy or phytotoxicity)
Bulrush post (herbicidal efficacy grade) ([2]; dosage 1000 g/ha): 4 (90%-100% of herbicidal efficacy or phytotoxicity)
Phytotoxicity to paddy rice [3, 9]: 2 (40%-69% of herbicidal efficacy or phytotoxicity)
Selective Index [4]: 10
False pimpernel post (herbicidal efficacy grade) ([5]; dosage 1000 g/ha): 4 (90%-100% of herbicidal efficacy or phytotoxicity)
Herbicide effect to Bulrush [6]: 4 (90%-100% of herbicidal efficacy or phytotoxicity)
Burnyard grass post (herbicidal efficacy grade) ([7]; dosage 1000 g/ha): 4 (90%-100% of herbicidal efficacy or phytotoxicity)
Bulrush pre (herbicidal efficacy grade) ([8]; dosage 1000 g/ha): 4 (90%-100% of herbicidal efficacy or phytotoxicity)
